Reference: patent US6156790A, “C-10 carbon-substituted artemisinin-like trioxane compounds having antimalarial, antiproliferative and antitumor activities” (priority 1997, dated 2000)
Entries after “also recorded” stand apart in the source; their conditions may differ. Like-named read-outs stand apart in the source and are kept apart here.

Legend:
MOLT-4 = assay: cells; conditions: Homo sapiens; for GI50: MOLT-4, read-out: concentration for primary growth inhibition
Procedure: The screening assay is performed on a 96-well microtitre plates.
Dose response curves, shown in the above mentioned Figures, are obtained by exposing various cancer cell lines to compounds having a known concentration ([log10 M]), as discussed in detail above, and then plotting the percentage growth of each cell line for each concentration. […] As discussed previously, the five drug dilutions routinely tested range from 10^-4 to 10^-9 molar.

SR = assay: cells; format: cell-based; conditions: Homo sapiens, read-out: Log10 TGI (converted)
A549/ATCC = assay: NCI 60 cell line screen (SRB), non-small cell lung cancer; format: cell-based; conditions: Homo sapiens; for CC50: read-out: Log10 LC50 (converted); for IC (TGI): read-out: Log10 TGI (converted)
EKVX = assay: as above; format: cell-based; conditions: Homo sapiens; for CC50: read-out: Log10 LC50 (converted); for IC (TGI): read-out: Log10 TGI (converted)
HOP-62 = assay: cells; format: cell-based; conditions: Homo sapiens; for CC50: read-out: Log10 LC50 (converted); for IC (TGI): read-out: Log10 TGI (converted)
HOP-92 = assay: NCI 60 cell line screen (SRB), non-small cell lung cancer; format: cell-based; conditions: Homo sapiens; for CC50: read-out: Log10 LC50 (converted); for IC (TGI): read-out: Log10 TGI (converted)
NCI-H226 = assay: as above; format: cell-based; conditions: Homo sapiens; for CC50: read-out: Log10 LC50 (converted); for IC (TGI): read-out: Log10 TGI (converted)
NCI-H23 = assay: as above; format: cell-based; conditions: Homo sapiens; for IC (TGI): read-out: Log10 TGI (converted)
NCI-H460 = assay: cells; format: cell-based; conditions: Homo sapiens; for CC50: read-out: Log10 LC50 (converted)
HCT-116 = assay: cells; format: cell-based; conditions: Homo sapiens; for CC50: read-out: Log10 LC50 (converted); for IC (TGI): read-out: Log10 TGI (converted)
HCT-15 = assay: cells; format: cell-based; conditions: Homo sapiens, HCT-15
HT29 = assay: cells; format: cell-based; conditions: Homo sapiens, HT-29, read-out: Log10 TGI (converted)
KM12 = assay: cells; format: cell-based; conditions: Homo sapiens, read-out: Log10 TGI (converted)
SW-620 = assay: NCI 60 cell line screen (SRB), colon cancer; format: cell-based; conditions: Homo sapiens; for IC (TGI): read-out: Log10 TGI (converted)
SNB-19 = assay: cells; format: cell-based; conditions: Homo sapiens
SNB-75 = assay: cells; format: cell-based; conditions: Homo sapiens, read-out: Log10 TGI (converted)
U251 = assay: cells; format: cell-based; conditions: Homo sapiens; for CC50: U-251, read-out: Log10 LC50 (converted); for IC (TGI): U-251, read-out: Log10 TGI (converted)
SK-MEL-2 = assay: cells; format: cell-based; conditions: Homo sapiens; for CC50: read-out: Log10 LC50 (converted); for IC (TGI): read-out: Log10 TGI (converted)
OVCAR-8 = assay: NCI 60 cell line screen (SRB), ovarian cancer; format: cell-based; conditions: Homo sapiens; for CC50: read-out: Log10 LC50 (converted); for IC (TGI): read-out: Log10 TGI (converted)
A498 = assay: cells; format: cell-based; conditions: Homo sapiens; for CC50: read-out: Log10 LC50 (converted)
SN12C = assay: cells; format: cell-based; conditions: Homo sapiens; for GI50: read-out: Log10 GI50 (converted); for CC50: read-out: Log10 LC50 (converted)
TK-10 = assay: cells; format: cell-based; conditions: Homo sapiens
UO-31 = assay: NCI 60 cell line screen (SRB), renal cancer; format: cell-based; conditions: Homo sapiens; for IC (TGI): read-out: Log10 TGI (converted)
PC-3 = assay: cells; format: cell-based; conditions: Homo sapiens, PC-3; for CC50: read-out: Log10 LC50 (converted)
MCF7 = assay: cells; format: cell-based; conditions: Homo sapiens, MCF7; for CC50: read-out: Log10 LC50 (converted)
MDA-MB231/ATCC = assay: cells; format: cell-based; conditions: Homo sapiens; for GI50: MDA-MB-231, read-out: Log10 GI50 (converted); for CC50: MDA-MB-231, read-out: Log10 LC50 (converted); for IC (TGI): MDA-MB-231, read-out: Log10 TGI (converted)
HS 578T = assay: cells; format: cell-based; conditions: Homo sapiens; for CC50: read-out: Log10 LC50 (converted); for IC (TGI): read-out: Log10 TGI (converted)
MDA-N = assay: cells; format: cell-based; conditions: Homo sapiens; for CC50: read-out: Log10 LC50 (converted); for IC (TGI): read-out: Log10 TGI (converted)
BT-549 = assay: cells; format: cell-based; conditions: Homo sapiens; for GI50: read-out: Log10 GI50 (converted); for IC (TGI): read-out: Log10 TGI (converted)
T-47D = assay: cells; format: cell-based; conditions: Homo sapiens, T47D, T-47D
60 cell line panel = assay: NCI 60 cell line screen, whole panel; format: cell-based
IGROVI = assay: cells; conditions: 60 cell; for IC (TGI): read-out: Log10 TGI
ACHN = assay: cells; conditions: Homo sapiens; for CC50: read-out: Log10 LC50 (converted); for IC (TGI): read-out: Log10 TGI
RXF 393 = assay: cells; conditions: Homo sapiens; for GI50: RXF 393, read-out: Log10 GI50 (converted); for CC50: RXF 393, read-out: Log10 LC50 (converted)
M14 = assay: NCI 60 cell line screen (SRB), melanoma; conditions: Homo sapiens; for IC (TGI): M14, read-out: Log10 TGI
[1] = MOLT-4, read-out: concentration for cytostasis
[2] = read-out: Log10 GI50 (converted)
[3] = read-out: Log10 TGI (converted)
[4] = read-out: Log10 LC50 (converted)

## C[C@H]1[C@@H](CC(=O)c2ccc(C(=O)C[C@H]3O[C@@H]4O[C@@]5(C)CC[C@H]6[C@H](C)CC[C@@H]([C@H]3C)[C@@]46OO5)cc2)O[C@@H]2O[C@@]3(C)CC[C@H]4[C@H](C)CC[C@@H]1[C@@]24OO3 [Dimer 21]
MOLT-4; MOLT-4, read-out: Log10 TGI
  IC (TGI): 12.9 µM
MOLT-4; [1]
  IC (TGI): ~100 µM
MOLT-4
  GI50: < 0.1 µM
SR
  IC (TGI): > 100 µM
A549/ATCC
  CC50: 37.2 µM
  IC (TGI): 13.5 µM
EKVX; [2]
  GI50: 1.15 µM
EKVX
  CC50: > 100 µM
  IC (TGI): 26.3 µM
HOP-62; [2]
  GI50: 0.417 µM
HOP-62
  CC50: 52.5 µM
  IC (TGI): 17.4 µM
HOP-92; [2]
  GI50: 0.0708 µM
HOP-92
  CC50: 83.2 µM
  IC (TGI): 17.4 µM
NCI-H226; [2]
  GI50: 0.0832 µM
NCI-H226
  CC50: > 100 µM
  IC (TGI): 28.2 µM
NCI-H23; [2]
  GI50: 0.012 µM
NCI-H23
  IC (TGI): > 100 µM
NCI-H460; NCI-H460, read-out: Log10 TGI
  IC (TGI): > 100 µM
NCI-H460; NCI-H460, read-out: Log10 GI50 (converted)
  GI50: 0.525 µM
NCI-H460; NCI-H460
  CC50: > 100 µM
HCT-116
  CC50: 51.3 µM
  IC (TGI): 12.6 µM
HCT-15; [3]
  IC (TGI): 24.5 µM
HT29
  IC (TGI): 15.1 µM
KM12
  IC (TGI): 14.5 µM
SW-620
  IC (TGI): 87.1 µM
SNB-19; [2]
  GI50: 0.537 µM
SNB-19; [3]
  IC (TGI): 41.7 µM
SNB-75
  IC (TGI): 34.7 µM
U251
  CC50: 41.7 µM
  IC (TGI): 17 µM
SK-MEL-2; [2]
  GI50: 0.0389 µM
SK-MEL-2
  CC50: 25.1 µM
  IC (TGI): 0.55 µM
OVCAR-8
  CC50: 41.7 µM
  IC (TGI): 12.3 µM
A498; [2]
  GI50: 1.82 µM
A498
  CC50: 64.6 µM
A498; [3]
  IC (TGI): 19.1 µM
SN12C
  GI50: 0.0105 µM
  CC50: 85.1 µM
SN12C; [3]
  IC (TGI): 12.3 µM
TK-10; [2]
  GI50: 0.00288 µM
UO-31
  IC (TGI): 57.5 µM
PC-3
  CC50: 47.9 µM
PC-3; [3]
  IC (TGI): 11.5 µM
MCF7
  CC50: 53.7 µM
MCF7; [3]
  IC (TGI): 13.2 µM
MDA-MB231/ATCC
  GI50: 0.178 µM
  CC50: 46.8 µM
  IC (TGI): 16.2 µM
HS 578T
  CC50: 72.4 µM
  IC (TGI): 15.1 µM
MDA-N
  CC50: 39.8 µM
  IC (TGI): 5.75 µM
BT-549
  GI50: 0.263 µM
  IC (TGI): 49 µM
T-47D; [3]
  IC (TGI): 2.57 µM
60 cell line panel; 60 cell, mean over panel, read-out: Log10 GI50 MG MID (converted)
  GI50: 0.0589 µM
60 cell line panel; 60 cell, mean over panel, read-out: Log10 TGI MG MID (converted)
  IC (TGI): 93300 µM
60 cell line panel; Homo sapiens, 60 cell, mean over panel, read-out: Log10 LC50 MG MID (converted)
  CC50: 64.6 µM
60 cell line panel; Tables III, IV and V
  potency compared with artemisinin: more potent than artemisinin
  potency compared with paclitaxel: in most instances are as potent and in some instances more potent than paclitaxel; also recorded: equivalent to and in many instances higher in potency than paclitaxel
60 cell line panel; panel
  Log10 TGI Range: 4.00
IGROVI
  IC (TGI): 12 µM
ACHN; [2]
  GI50: 0.0195 µM
ACHN
  CC50: > 100 µM
  IC (TGI): 69.2 µM
RXF 393
  GI50: 2.57 µM
  CC50: 49 µM
RXF 393; RXF 393, read-out: Log10 TGI
  IC (TGI): 19.5 µM
M14; M14, read-out: Log10 GI50 (converted)
  GI50: 1.26 µM
M14; M14, read-out: Log10 LC50 (converted)
  CC50: 45.7 µM
M14
  IC (TGI): 17.8 µM

## C[C@@H]1CC[C@H]2[C@@H](C)C(=O)O[C@@H]3O[C@@]4(C)CC[C@@H]1[C@]32OO4 [Artemisinin]
MOLT-4; MOLT-4, read-out: Log10 LC50 (converted)
  CC50: > 100 µM
MOLT-4; [1]
  IC (TGI): > 100 µM
MOLT-4; MOLT-4, read-out: concentration for cytotoxicity
  CC50: > 100 µM
MOLT-4
  GI50: > 100 µM
SR
  IC (TGI): > 100 µM
A549/ATCC; [2]
  GI50: 67.6 µM
A549/ATCC
  CC50: > 100 µM
  IC (TGI): > 100 µM
EKVX
  CC50: > 100 µM
  IC (TGI): > 100 µM
HOP-62
  CC50: > 100 µM
  IC (TGI): > 100 µM
HOP-92
  CC50: > 100 µM
  IC (TGI): > 100 µM
NCI-H226
  CC50: > 100 µM
  IC (TGI): > 100 µM
NCI-H23
  IC (TGI): > 100 µM
NCI-H460; NCI-H460
  CC50: > 100 µM
HCT-116
  CC50: > 100 µM
  IC (TGI): > 100 µM
HCT-15; [4]
  CC50: > 100 µM
HT29
  IC (TGI): > 100 µM
KM12
  IC (TGI): > 100 µM
SW-620; [4]
  CC50: > 100 µM
SW-620
  IC (TGI): > 100 µM
SNB-19; [4]
  CC50: > 100 µM
SNB-75
  IC (TGI): > 100 µM
U251
  CC50: > 100 µM
  IC (TGI): > 100 µM
SK-MEL-2
  CC50: > 100 µM
  IC (TGI): > 100 µM
OVCAR-8
  CC50: > 100 µM
  IC (TGI): > 100 µM
A498
  CC50: > 100 µM
SN12C
  GI50: 61.7 µM
  CC50: > 100 µM
TK-10; [4]
  CC50: > 100 µM
UO-31; [2]
  GI50: 87.1 µM
UO-31; [4]
  CC50: > 100 µM
UO-31
  IC (TGI): 100 µM
PC-3; [2]
  GI50: 67.6 µM
PC-3
  CC50: > 100 µM
MCF7
  CC50: > 100 µM
MDA-MB231/ATCC
  GI50: 63.1 µM
  CC50: > 100 µM
  IC (TGI): 100 µM
HS 578T
  CC50: > 100 µM
  IC (TGI): > 100 µM
MDA-N
  CC50: > 100 µM
  IC (TGI): > 100 µM
BT-549
  GI50: 87.1 µM
  IC (TGI): 100 µM
BT-549; [4]
  CC50: > 100 µM
T-47D; [4]
  CC50: > 100 µM
60 cell line panel; 60 cell, panel, read-out: Log10 GI50 Delta (converted)
  GI50: 85.1 µM
60 cell line panel; panel
  Log10 LC50 Delta: -4.00
  Log10 TGI Delta: -4.00
  Log10 TGI Range: 0.06
IGROVI; [2]
  GI50: 49 µM
IGROVI
  IC (TGI): > 100 µM
ACHN
  CC50: > 100 µM
  IC (TGI): > 100 µM
RXF 393
  GI50: 83.2 µM
  CC50: > 100 µM
M14
  IC (TGI): > 100 µM
